{"source": "paper PMC11054303", "about": "“Design and Synthesis of Novel N-Benzylidene Derivatives of 3-Amino-4-imino-3,5-dihydro-4H-chromeno[2,3-d]pyrimidine under Microwave, In Silico ADME Predictions, In Vitro Antitumoral Activities and In Vivo Toxicity” (Pharmaceuticals, 2024)", "key": {"Huh7 D12": {"tested_on": "Huh7 D12", "assay": "Antiproliferative assay, Huh7 D12", "assay_type": "cell-based, human", "protocol": "The potential antiproliferative activity of these novel 3-(N-phenylmethyliden)amino-4-imino-3,5-dihydro-4H-chromeno[2,3-d]pyrimidine 10(a-i) and 10-(N-phenylmethyliden)amino-11-imino-11H-naphto[1′,2′:5,6]pyrano[2,3-d]pyrimidine 10(j-l) was evaluated in a panel of eight tumoral cell lines and in diploid skin fibroblasts used as normal cell lines for control. For these antitumor assays, chosen cell lines represent diverse types of human cancer, which are, respectively, human hepatocellular carcinoma (Huh7 D12), human colon adenocarcinoma (Caco2), human breast adenocarcinoma (MDA-MB231), MDA-MB468 for human breast carcinoma which correspond to the Triple Negative Breast Cancer (TNBC), human colon carcinoma (HCT116), PC3 as cell line initiated from bone metastasis of grade IV prostatic adenocarcinoma from a person, MCF7 as breast cancer line isolated from a person and PANC1, as human pancreatic cancer cell line. The potential antiproliferative activity was preliminarily evaluated in vitro at a 25 μM single dose.\nThe IC50 was calculated from the full dose-response curve and used as a parameter for the antiproliferative activity of the new compounds.\nSkin diploid fibroblastic cells were provided by BIOPREDIC International Company (Rennes, France). Huh-7D12 (Ref ECACC: 01042712), Caco2 (Ref ECACC: 86010202), MDA-MB-231 (Ref ECACC: 92020424), MDA-MB-468, HCT-116 (Ref ECACC: 91091005), PC3 (Ref ECACC: 90112714), and MCF7 cell lines were obtained from the ECACC collection. PANC1 cell lines, a generous gift of LBAI Inserm 1227 (Brest, France). Cells were grown according to ECACC recommendations in DMEM for Huh-D12, MDA-MB-231, MDA-MB-468 and fibroblast, in EMEM for Caco2, in McCoy’s for HCT-116 and RPMI for PC3 at 37 °C and 5% CO2. All culture media with 10% of FBS, 1% of penicillin-streptomycin and 2 mM glutamine.\nChemicals were solubilized in DMSO at a concentration of 10 mM (stock solution) and diluted in a culture medium to the desired final concentrations. […] The toxicity test of the chemicals on these cells was as follows: 2 × 10^3 cells for HCT-116 cells or 4 × 10^3 for the other cells were seeded in 96-multi-well plates in triplicate and left for 24 h for attachment, spreading and growing. Then, cells were exposed for 48 h to increasing concentrations of chemicals, ranging from 0.1 μM to 25 μM, in a final volume of 120 μL of culture medium. After 48 h of treatment, cells were washed in PBS and fixed in a cooled 90% ethanol/5% acetic acid solution for 20 min. The nuclei were stained with Hoechst 3342 (B2261 Merck Sigma-Aldrich) and counted. Image acquisition and analysis were performed using automated imaging analysis with a Cellomics Arrayscan VTI/HCS Reader (Thermo/Scientific, Waltham, MA, USA). The survival percentages were calculated as the percentage of cell number after chemical treatment over cell number after DMSO treatment. The IC50 was graphically determined."}, "[1]": {"tested_on": "zebrafish Danio rerio embryos", "assay": "Zebrafish embryo toxicity assay (Zebratox, FET)"}, "[2]": {"tested_on": "Store-Operated Ca^+2 Entry (SOCE)", "assay": "Store-operated calcium entry (SOCE) assay in HEK293 cells", "assay_type": "cell-based, human", "settings": "1.25 to 50 μM added 5 min before recording, 2 μM thapsigargin, then 1.8 mM Ca2+", "protocol": "Thapsigargin (TG), an inhibitor of endoplasmic reticulum Ca^+2-ATPase, is used to deplete intracellular calcium stores in a Ca^+2-free solution and therefore activate SOCE. […] In the context of a preliminary exploration of the functional effects of our molecules of interest and in the absence of a significant inhibition at a low concentration of compound 10h on the reference cell line we used (HEK293) no further exploration of the modulatory effect of this compound on cancer cell lines was initiated.\nThe HEK293 cell line was maintained in DMEM High Glucose with Sodium Pyruvate ([…]) and antibiotics (1% of penicillin/streptomycin) in a humidified incubator at 37 °C, supplemented with 5% of CO2.\nFor Ca^2+ measurement experiments, HEK293 cells were seeded overnight into 96 wells of a black clear bottom plate (Corning Ref: 3603) at […] in 100 µL culture medium. The resting medium was aspirated and cells were loaded with Fura-2 acetoxymethyl ester (Fura-2 QBT™) fluorochrome. […]\nIntracellular calcium levels were evaluated by recording changes in the fluorescence of the dual-wavelength fluorescent calcium-sensitive dye Fura-2AM using the plate reader FlexStation 3™ (Molecular Devices, Sunnyvale, CA, USA). Dual excitation wavelength capability permits ratiometric measurements of Fura-2AM peak fluorescence emission at 510 nm after excitations at 340 and 380. […]"}, "[3]": {"settings": "48 and 72 hpf treatment, up to 5 μM"}}, "note": "Entries after “also recorded” stand apart in the source; their conditions may differ."}
{"smiles": "COc1cccc2c1Oc1ncn(/N=C/c3ccccc3O)c(=N)c1C2", "note": "[10h, (3E) 3-N-(2-Hydroxyphenylmethylidene)amino-4-imino-9-methoxy-3,5-dihydro-4H-chromeno[2,3-d]pyrimidine]", "values": [{"measurement": "IC50", "setting": "Huh7 D12; Homo sapiens, Huh-7D12, 48 h incubation, average of three assays, standard error ± 0.5 μM", "result": 230, "unit": "nM"}, {"measurement": "Selectivity Index (SI) Huh7 D12", "setting": "Huh7 D12; SI = IC50 fibroblasts/IC50 on Huh7 D12", "result": "> 108.7"}, {"measurement": "hatching of the embryos", "setting": "[1]; 5 μM dose at 72 hpf", "result": "complete hatching"}, {"measurement": "toxic effect on zebrafish embryos", "setting": "[1]; 5 μM dose at 72 hpf", "result": "no toxic effect; also recorded: without toxic effect"}, {"measurement": "hatching of the embryos", "setting": "[1]; [3]", "result": "complete hatching"}, {"measurement": "toxic effect on zebrafish embryos", "setting": "[1]; [3]", "result": "no toxic effect"}, {"measurement": "inhibition of SOCE", "setting": "[2]", "result": "dose-dependent inhibition; also recorded: partially inhibits SOCE in HEK293 cells in a dose-dependent manner; also recorded: dose-dependent effect but with a minor inhibitory effect on SOCE at low concentrations"}]}
